Here are results for 44 compounds from ChEMBL document CHEMBL1201862, “PubChem BioAssay data set” (2004).

Structures are written as SMILES. Active and inactive are the calls of the source. For most assays here, no stated cut-off is given here; in the data, actives have a measured EC50 and inactives only a lower limit. Some results are limits rather than exact numbers.

A word on the EC50: it is the concentration that produces a half-maximal response. The term IC50 denotes the concentration needed to halve the response being measured. The AC50 is the concentration giving half of the maximal activity seen.

Experiment [1] in a line: Luminescence Cell-Based Dose Response HTS to Identify Activators of Luciferase Translation or Activity in H4 […] Cells. [Related pubchem assays: 1829 (Project Summary), 1814 (Primary HTS)]. It is filed as functional.
A further experiment has as its system H4. The experiment in a line: Luminescence Cell-Based Dose Response HTS to Identify Activators of 5'UTR Stem-Loop Driven Prion Protein mRNA Translation in H4 Neuroglioblastoma Cells. [Related pubchem assays: 1829 (Project Summary), 1814 (Primary HTS)]. It is filed as functional. As to conditions: Homo sapiens.
Experiment [2] is described as follows: Luminescence Cell-Based Dose Confirmation HTS to Identify Activators of 5'UTR Stem-Loop Driven Alpha-Synuclein mRNA Translation in H4 Neuroglioblastoma Cells. [Related pubchem assays: 1829 (Project Summary), 1814 (Primary HTS)]. Format: functional.
The nature of experiment [3]: Luminescence Cell-Based Dose Confirmation HTS to Identify Inhibitors of Platelet Dense Granule Release. [Related pubchem assays: 1663 (Primary HTS), 1678 (Summary of Project)]. It is filed as functional.
Experiment [4] has as its target Luciferin 4-monooxygenase (Photinus pyralis, UniProt P08659). The experiment in a line: inhibition of purified Photinus pyralis luciferase – biochemical, luminescence, dose response (AID 1891).
For a further experiment, the system named is H9c2. Description: cells. It is filed as functional, cell-based. Conditions: Rattus norvegicus, H9c2, Myocardium.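 Further: confirmatory concentration-response retest of ultra-high-throughput screening hits for modulation of myocardial damage; cell death induced by hydrogen peroxide oxidative stress; compound pretreatment for 60 min then peroxide exposure for 2 h; potency is for protecting the cells against peroxide damage rather than for killing them.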
The nature of experiment [5]: fluconazole-exposed Candida albicans growth modulators – fluorescence, retest, confirmation (AID 2467). It is filed as functional, cell-based.
Experiment [6] can be described thus: NIH-3T3 fibroblast cytotoxicity, dose response, cytotoxicity control, cell-based, fluorescence, Alamar Blue, secondary assay (AID 2327).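 Further: NIH-3T3 mouse fibroblasts cultured with fluconazole at 8 µg/mL.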 It is filed as functional. On the technique in general: Alamar Blue is a resazurin reagent that responds to reducing activity.
Experiment [7] relates to Streptococcus sp. 'group A'. Description: Streptococcus pyogenes SK(-)GAS viability under kanamycin – luminescence, BacTiterGlo, confirmation, counter-screen for streptokinase expression inhibitor project, dose response (AID 1900). It is filed as functional, organism-based. As to conditions: Streptococcus sp. 'group A'. (A counterscreen serves to expose hits that act by an unwanted route or on another target.)

The next experiment deals with T1, Streptokinase A (Streptococcus pyogenes serotype M1, UniProt P10520).
T1 sequence (P10520 whole entry): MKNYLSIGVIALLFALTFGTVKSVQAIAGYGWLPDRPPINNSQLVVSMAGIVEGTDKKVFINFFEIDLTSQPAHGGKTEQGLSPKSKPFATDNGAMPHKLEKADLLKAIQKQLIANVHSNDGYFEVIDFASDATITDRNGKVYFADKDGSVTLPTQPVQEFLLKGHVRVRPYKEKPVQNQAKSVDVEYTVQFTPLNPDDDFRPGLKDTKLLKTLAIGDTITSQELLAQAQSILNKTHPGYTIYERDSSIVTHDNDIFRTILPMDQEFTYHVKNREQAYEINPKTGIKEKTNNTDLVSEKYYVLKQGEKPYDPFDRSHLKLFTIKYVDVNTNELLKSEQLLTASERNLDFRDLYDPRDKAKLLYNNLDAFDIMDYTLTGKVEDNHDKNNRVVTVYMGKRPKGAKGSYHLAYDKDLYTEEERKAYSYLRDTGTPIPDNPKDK
The experiment in a line: viability-normalized secreted streptokinase activity reduction – plasminogen activation absorbance, OD405, dose response (AID 1914).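 Further: secreted streptokinase activity via plasminogen activation per viability signal from cell pellet.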 It is filed as functional, Streptococcus pyogenes M1 GAS.

Another experiment deals with Streptococcus. Description: GAS UMAA2166 growth inhibition – luminescence, BacTiterGlo, counter-screen for streptokinase expression inhibitor project, dose response (AID 1915).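 Further: potency for reduction of bacterial viability or growth.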 It is filed as functional, organism-based. As to conditions: Streptococcus.
Experiment [8] in a line: luciferase reporter signal suppression in cells – H4 neuroglioma cells, luminescence, dose response (AID 1990). It is filed as functional, cell-based. (In general: In a reporter assay the amount or activity of a reporter protein is the signal.)
The next experiment concerns the target Cytochrome P450 2C9 (Homo sapiens, UniProt P11712).
Experiment [9] in a line: P. falciparum Dd2 growth inhibitors, dose response, SYBR Green, cherry-picked samples (AID 1159567). It is filed as functional, cell-based.

Sequence of Luciferin 4-monooxygenase (P08659 whole entry): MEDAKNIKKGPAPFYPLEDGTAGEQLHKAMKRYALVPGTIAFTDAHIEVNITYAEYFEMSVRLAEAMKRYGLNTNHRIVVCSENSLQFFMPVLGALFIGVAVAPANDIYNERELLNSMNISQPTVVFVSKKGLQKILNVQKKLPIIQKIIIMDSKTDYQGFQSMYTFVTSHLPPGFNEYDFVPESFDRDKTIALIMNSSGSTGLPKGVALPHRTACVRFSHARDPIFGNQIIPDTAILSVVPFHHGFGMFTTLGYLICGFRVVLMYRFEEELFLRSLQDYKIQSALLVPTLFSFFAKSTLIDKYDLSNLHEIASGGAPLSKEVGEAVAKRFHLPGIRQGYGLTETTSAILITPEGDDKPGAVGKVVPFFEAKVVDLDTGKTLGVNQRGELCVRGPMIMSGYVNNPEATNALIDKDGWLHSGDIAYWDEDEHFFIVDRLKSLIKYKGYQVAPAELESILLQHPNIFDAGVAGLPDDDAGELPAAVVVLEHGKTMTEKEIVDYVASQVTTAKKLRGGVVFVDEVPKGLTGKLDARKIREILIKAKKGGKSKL
Sequence of Cytochrome P450 2C9 (P11712 whole entry): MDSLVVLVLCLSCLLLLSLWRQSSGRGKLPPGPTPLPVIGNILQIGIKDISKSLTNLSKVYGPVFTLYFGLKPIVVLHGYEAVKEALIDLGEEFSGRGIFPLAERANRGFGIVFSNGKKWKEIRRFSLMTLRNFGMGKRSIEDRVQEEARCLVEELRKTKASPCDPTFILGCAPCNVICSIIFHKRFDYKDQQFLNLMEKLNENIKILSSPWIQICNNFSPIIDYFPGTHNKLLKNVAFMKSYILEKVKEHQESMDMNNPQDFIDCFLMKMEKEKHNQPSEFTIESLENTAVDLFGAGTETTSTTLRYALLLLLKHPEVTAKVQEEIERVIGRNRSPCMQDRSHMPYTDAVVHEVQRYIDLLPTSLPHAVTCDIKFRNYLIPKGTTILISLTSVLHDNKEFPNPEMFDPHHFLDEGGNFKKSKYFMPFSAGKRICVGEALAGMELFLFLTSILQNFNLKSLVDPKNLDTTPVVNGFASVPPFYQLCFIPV

`O=C(NCCSc1ccccc1)c1cncc(Br)c1`: the EC50 was 5.57 µM (active) in experiment [1], 9.26 µM (active) with H4 and 30.1 µM (active) in [2].
Consider `COC(=O)c1sc(NC(=O)c2c(C)noc2C)nc1C`, for which the EC50 in experiment [3] is > 112 µM (not active); in experiment [4] it was 30.6 µM (active).
Turning to `N#C/C(=C\c1ccc(Cl)cc1)c1nc2ccc[nH]c-2n1`, the EC50 in experiment [1] is 14 µM (active); in the experiment on H4 it was 44 µM (active); in experiment [2] it was > 120 µM (not active).
On the same counts, the results for `CCC1SC(NC(=O)NC2CCCCC2)=NC1=O` (stereo unspecified) are 27.5 µM (active), 0.115 µM (active) and 15.8 µM (active).
Consider `COc1ccc2nc(O)c(CN(Cc3ccco3)Cc3nnnn3Cc3ccccc3)cc2c1`, for which, in the experiment on H9c2, the IC50 is > 79 µM (inactive).
On to `CC(=O)c1cccc(NC(=O)COC(=O)[C@@H](NC(=O)OCc2ccccc2)C(C)C)c1`, for which the EC50 in experiment [3] and in experiment [4] was > 112 µM (not active) throughout.
`CSc1ccc(C2c3[nH]c4ccccc4c3CCN2C(=O)c2ccnn2C)cc1` (stereo unspecified): the EC50 in experiment [5] was 2.7 µM (active); in experiment [6], > 150 µM (inactive).
In the case of `COc1cccc(NC(=O)CN(C)C(=O)CCCc2nc(O)c3ccccc3n2)c1`, the IC50 with H9c2 is > 79 µM (inactive).
Consider `C=CCN1c2ccccc2[C@]23C[C@@H](C(=O)OC)N(C(=O)c4cc(C)oc4C)C2=NC(C(=O)OC)=C(C(=O)OC)[C@H]13`, for which the concentration for a half-maximal effect (EC50) is > 120 µM (not active) in [1], > 120 µM (not active) in the experiment on H4 and 9.07 µM (active) in experiment [2].
On to `COc1ccc(OC)c(NC(=O)NC2CCCc3ccccc32)c1` (stereo unspecified), for which the EC50 (in [7]; at Streptokinase A; in the experiment on Streptococcus) was > 150 µM (not active) each time.
For the compound `NC(=O)N1CCC2(CC1)NC(=O)N(c1ccccc1)N2`, in experiment [6], the EC50 was > 150 µM (inconclusive).
For `CCOc1ccccc1-c1nc(C(N)=O)c2nc(O)n(-c3cccc(C)c3)c2n1`, the EC50 in [3] and in experiment [4] was > 112 µM (not active) in each case.
With `O=C(c1ccc2c(c1)OCO2)N1CCC2(CC1)Oc1ccc(Cl)cc1C(=O)C21CC(c2cccnc2)=NO1` (stereo unspecified), the results for the EC50 in experiment [5] and in experiment [6] were 2.08 µM (active) and > 150 µM (inactive), respectively.
Consider `Cc1nnc(NC(=O)c2c(-c3ccccc3Cl)noc2C)s1`, for which the figures for the EC50 in experiment [5] and in experiment [6] were 4.42 µM (active) and 32.1 µM (active), respectively.
Take `COc1ccc(CN(C)C(=O)C(Cc2ccccc2)NC(=O)c2ccccc2)cc1F` (stereo unspecified): in the experiment with H9c2, the IC50 was > 79 µM (inactive).
As for `COc1ccc(-n2c(S)nnc2-c2cccc(C)c2[N+](=O)[O-])cc1`, the EC50 was 1.7 µM (active) in experiment [5] and > 150 µM (inactive) in experiment [6].
As for `CCCOc1ccc(C2=NNC(=O)CC2)cc1`, the EC50 in experiment [8] was < 0.1 µM (active).
As to `O=C(c1ccccc1)N1CCN(CC#Cc2ccccc2)CC1`, the results for the EC50 (in [1]; in the experiment on H4; in [2]) were 9.34 µM (active), 6.67 µM (active) and 8.44 µM (active), respectively.
On to `CC1CCN(C(=O)COC(=O)c2nnc(O)c3ccccc23)CC1`, for which, in the experiment with H9c2, the IC50 is > 79 µM (inactive).
Turning to `Clc1ccccc1Nc1ncnc(-n2cccc2)n1`, the EC50 in experiment [1] is 1.7 µM (active); in the experiment on H4 it was 6.97 µM (active); in experiment [2], 0.153 µM (active).
`CNC(S)=NCCc1ccc(OC)c(OC)c1`: the EC50 in experiment [3] and in experiment [4] was > 112 µM (not active) throughout.
Turning to `CSc1nnc2c(n1)c(C)nn2-c1ccc(C)cc1`, the EC50 was 16.1 µM (active) in [1], 4.22 µM (active) in the experiment on H4 and 0.114 µM (active) in experiment [2].
With `CCCCc1c(C)nn(-c2nnc3c4ccccc4n(C)c3n2)c1C`, the EC50 in [1] is 5.26 µM (active); in the experiment with H4, 15.8 µM (active); in [2], > 120 µM (not active).
Regarding `CCc1nc(NC(C)C)c2oc3ccccc3c2n1`, the EC50 in experiment [3] and in experiment [4] was > 112 µM (not active) throughout.
As for `O=c1c2ccccc2nc(-c2ccco2)n1Cc1ccccc1`, the concentration giving a half-maximal response (EC50) in experiment [1] is 8.08 µM (active); in experiment [2], 34.1 µM (active).
As for `NC(=NOC(=O)c1ccccc1Cl)c1nonc1N`, the EC50 was 4.54 µM (active) in experiment [3] and 1.11 µM (active) in [4].
As to `C=CCn1c[n+](CC(=O)c2ccc(Br)s2)c2ccccc21`, the concentration giving a half-maximal response (EC50) in experiment [5] was > 38 µM (not active); in [6], > 160 µM (inactive).
Consider `Cc1nn2c(nc(O)c3ccccc32)c1C=O`, for which the results for the EC50 in experiment [5] and in [6] were 2.16 µM (active) and > 160 µM (inactive), respectively. At Cytochrome P450 2C9, the AC50 is 15.8 µM (inconclusive).
Consider `COc1ccc2nc(O)c(CN(CCc3ccccc3)Cc3nnnn3CC3CCCO3)cc2c1` (stereo unspecified), for which the IC50 in the experiment on H9c2 is 14.6 µM (active).
For `Cc1ccc(C2NC(=O)c3ccccc3N2)s1` (stereo unspecified), the values for the EC50 (in experiment [1]; with H4; in experiment [2]) were 10.5 µM (active), 11.8 µM (active) and > 120 µM (not active), respectively.
For `Cc1[nH]c2ccccc2c1C(Nc1nccs1)c1ccncc1` (stereo unspecified), the EC50 in experiment [3] is 14.6 µM (active); in experiment [4], > 112 µM (not active).
On the same counts, the results for `O=C(CC1Oc2ccccc2NC1=O)NC1CC1` (stereo unspecified) are > 112 µM (not active) and > 112 µM (not active).
Take `O=C(COc1ccccc1F)Nc1nc(-c2ccccn2)cs1`: the IC50 in the experiment on H9c2 was > 79 µM (inactive).
`CC1CCN(CCCNC(=O)c2nnc(O)c3ccccc23)CC1`: the IC50 in the experiment with H9c2 was 48.9 µM (inactive).
On the same count and under the same terms, then `C/C(=N\NC(=O)c1cccnc1)c1ccc(OC2OCCOC2Oc2ccc(/C(C)=N/NC(=O)c3cccnc3)cc2)cc1` (stereo unspecified), with > 79 µM (inactive).
The same measure, in the same setting: for `O=C(N/N=C/c1ccncc1)c1ccc(COc2cccc3cccnc23)cc1` the value was 14.3 µM (active).
On to `Cc1nn(-c2ccccc2)c(C)c1/C=N/NC(=O)c1cc(C2CC2)[nH]n1`, for which the IC50 in the experiment on H9c2 is > 79 µM (inactive).
As for `Cc1ccc2occ(/C=N/NC(=O)c3ccccc3O)c(=O)c2c1`, the 50% effective concentration (EC50) was > 38 µM (not active) in experiment [5] and > 150 µM (inconclusive) in experiment [6].
Regarding `COc1ccc(NC(=O)N(C)C[C@H]2OCc3ccccc3-c3c(n(C)c4ccccc34)C(=O)N([C@H](C)CO)C[C@@H]2C)c(OC)c1`, the AC50 in experiment [9] is 7.42 µM (active).
Same read-out and setting: then `COc1ccc2c3c([nH]c2c1)[C@@H](CO)N(Cc1ccccc1F)CC31CCN(C(=O)C2CCOCC2)CC1`, with 6.46 µM (active); and `CO[C@@H]1CN(C)C(=O)c2cc(NC(=O)Nc3cccc(Cl)c3)ccc2OC[C@@H](C)NC[C@@H]1C`, with 9.36 µM (active); and `O=C1CN(S(=O)(=O)c2ccccc2)C[C@H]2[C@H](c3ccc(C#CCc4ccccc4)cc3)[C@@H](CO)N12`, with 4.06 µM (active).
Consider `COc1ccc(S(=O)(=O)N[C@@H]2CC[C@H](CCn3cc(-c4ccccc4F)nn3)O[C@@H]2CO)cc1`, for which the half-maximal activity concentration (AC50) in experiment [9] was 8.67 µM (active).
For `CN(C)S(=O)(=O)c1cccc(NC(=O)COC(=O)c2ccc([N+](=O)[O-])o2)c1`, in the experiment on H9c2, the IC50 was 10.3 µM (active).
